Experimental data: patent publication US12310936B2, “Pharmaceutical compositions for the treatment of cancer” (Seleq Oy, priority 2018, dated 2025)
Where a chain is given by its changes, count along the chain named. In names and notes the source's numbering stands.

B1: Y101H: mutant human kynurenine aminotransferase I, tyrosine to histidine substitution at position 101 (protein, listed as Homo sapiens)
chain: MAKQLQARRLDGIDYNPWVEFVKLASEHDVVNLGQGFPDFPPPDFAVEAFQHAVSGDFMLNQYTKTFGYPPLTKILASFFGELLGQEIDPLRNVLVTVGGHGALFTAFQALVDEGDEVIIIEPFFDCYEPMTMMAGGRPVFVSLKPGPIQNGELGSSSNWQLDPMELAGKFTSRTKALVLNTPNNPLGKVFSREELELVASLCQQHDVVCITDEVYQWMVYDGHQHISIASLPGMWERTLTIGSAGKTFSATGWKVGWVLGPDHIMKHLRTVHQNSVFHCPTQSQAAVAESFEREQLLFRQPSSYFVQFPQAMQRCRDHMIRSLQSVGLKPIIPQGSYFLITDISDFKRKMPDLPGAVDEPYDRRFVKWMIKNKGLVAIPVSIFYSVPHQKHFDHYIRFCFVKDEATLQAMDEKLRKWKVEL
B2: H279F: mutant human kynurenine aminotransferase I, histidine to phenylalanine substitution at position 279 (protein, listed as Homo sapiens)
chain: B1 chain with H101Y, H279F

Tests used:
HCC cells = test: Modulation of SMC cytotoxicity by agents that favor beta-elimination; conditions: more prominent together with overexpression of KYAT1
Native HCC cells = test: HCC cell viability with SMC in the presence of alfaketoacid analogues, native HCC cells; format: cell-based; conditions: IC50 of SMC in the presence of the labelled alfaketoacid analogue, relative to PPA treated HCC cells (=100)
Protocol: (§1) Normal hepatocytes and malignant hepatocytes (HCC) were incubated in the presence of various concentrations of SMC. After 72 h, the ATP content of lysed cells, which is proportional to the number of viable cells, was measured using a luminescence-based CellTiter Glo Kit (Promega) according to manufacturer's protocol using a FLx100 Luminometer (BioTek).

KYAT induced cells = test: HCC cell viability with SMC in the presence of alfaketoacid analogues, KYAT induced cells; format: cell-based; conditions: IC50 of SMC in the presence of the labelled alfaketoacid analogue, relative to untreated KYAT induced cells
Protocol: as §1

human KYAT1 = test: Selenol production by mutated KYAT1 using SMC as a substrate; format: biochemical; conditions: mutant versus wild type KYAT1
From the text: The crystal structure of human KYAT1 has been determined for several complexes. The complex of KYAT1 with the cofactor PLP and the inhibitor L-Phe was used to create molecular models of Seleno-methyl Cystein (SMC) in complex with KYAT1 (FIG. 1). Our approach has been to identify residues that can be mutated in order to enhance beta-elimination of SMC, resulting in increased selenol production. This can be done by changing the substrate specificity of KYAT1 from kynurenine to SMC, or by changing kinetics of reprotonation of Calpha in the substrate. Several residues were mutated to check their potential involvement into the selenol formation.

Molecule	effect of the agent on the cytotoxicity of SMC (HCC cells)	SMC IC50 (percentage of control) (Native HCC cells)	selenol production by KYAT1 using SMC as a substrate (human KYAT1)	also measured
Cc1ncc(COP(=O)(O)O)c(C=O)c1O [PLP, pyridoxal 5′-phosphate]	increase the cytotoxicity of SMC			
O=C(O)C(=O)Cc1ccccc1 [PPA, phenyl pyruvic acid]	increase the cytotoxicity of SMC	100 percentage of control		
COC(=O)CCC(=O)C(=O)OC [αKG, dimethyl-2-oxoglutarate]	increase the cytotoxicity of SMC			
indole pyruvic acid [IPA]		38 percentage of control		SMC IC50 (percentage of control) (KYAT induced cells): 35 percentage of control
B1			higher selenol production	
B2			higher selenol production	
